Measurements from US20120040898A1, “PHARMACEUTICAL COMPOSITIONS” (TAISHO PHARMACEUTICAL CO., LTD, priority 2009, published 2012).
Structures can show the parent of a compound that is named as a salt.

Legend:
Assay type in all cases: in vivo
Zucker fatty rats [1] = experiment: Combination treatment of compound A and acarbose in diabetic rats (soluble starch loading); conditions: fasted Zucker fatty rats; single oral dose compound A 1 mg/kg, acarbose 1 mg/kg, alone or combined; soluble starch 2 g/kg one minute later; up to 120 minutes; mean ± standard error
Method: Six male Zucker fatty rats (11-week old) were fasted and orally administered with single doses of compound A (1 mg/kg) and an α-glucosidase inhibitor, acarbose (1 mg/kg), either alone or in combination. […] Wako Pure Chemical Industries, Ltd.)

db/db mice [2] = experiment: Chronic combination treatment of compound A and metformin hydrochloride in diabetic mice; conditions: mean ± standard error; for Change in GHb (%) / Change in plasma IRI level: 27 days; for Fasting plasma glucose level: after 27 days, fasted 16 hours; for Change in plasma IRI level: non-fasting
Zucker fatty rats [3] = experiment: Combination treatment of compound A and sitagliptin in diabetic rats (oral glucose loading); conditions: fasted Zucker fatty rats; single oral dose compound A 1 mg/kg, sitagliptin 0.3 mg/kg, alone or combined; glucose 2 g/kg one hour later; up to 120 minutes; mean ± standard error
Method: Eight male Zucker fatty rats/group (10-week old) were fasted and orally administered with single doses of compound A (1 mg/kg) and a DPP-IV inhibitor, sitagliptin (0.3 mg/kg), either alone or in combination. […] Wako Pure Chemical Industries, Ltd.)

[4] = tested on: high-fat diet loaded mice with STZ-induced diabetes mellitus; experiment: Combination treatment of compound A and glibenclamide in diabetic mice; conditions: high-fat diet STZ diabetic ICR mice, non-fasting; single oral dose compound A 1 mg/kg, glibenclamide 10 mg/kg, alone or combined; up to 8 hours; mean ± standard error
Description: After 3 weeks a high-fat diet (D12492 of Research Diets, Inc.) feeding, ICR mice (CHARLES RIVER LABORATORIES JAPAN, INC.) were intraperitoneally administered with streptozocin (SIGMA-ALDRICH JAPAN K.K.; hereinafter abbreviated as STZ) to induce diabetes. […] SIGMA-ALDRICH JAPAN K.K.), either alone or in combination. Blood was taken from the tail vein of each mouse at specified time intervals and centrifuged to collect plasma. […] Wako Pure Chemical Industries, Ltd.)

db/db mice [5] = experiment: Chronic combination treatment of compound A and pioglitazone in diabetic mice; conditions: compound A 3 mg/kg, pioglitazone 10 mg/kg, once daily oral, alone or combined, 27 days, mean ± standard error; for Change in GHb (%): after minus before; for Change in plasma IRI level: non-fasting
C57BL mice = experiment: Combination treatment of compound A and glimepiride in normal mice; conditions: normoglycemic C57BL mice, non-fasting; single oral dose compound A 10 mg/kg, glimepiride 0.5 mg/kg, alone or combined; up to 3 hours; mean ± standard error
Method: (§1) CLEA Japan, Inc.) and 10 female C57BL mice/group (normal mice; 4-week old; CLEA Japan, Inc.) were orally administered with single doses of compound A (10 mg/kg) and an insulin secretagogue, glimepiride (0.5 mg/kg; SIGMA-ALDRICH JAPAN K.K.), either alone or in combination. Blood was taken from the tail vein of each mouse at specified time intervals and plasma glucose levels were measured by the GDH electrode method with a self-testing glucose measuring instrument (Glutest Neo Super; […] CO., LTD.)

Zucker fatty rats [6] = experiment: Combination treatment of compound A and voglibose in diabetic rats (soluble starch loading); conditions: fasted Zucker fatty rats; single oral dose compound A 1 mg/kg, voglibose 0.1 mg/kg, alone or combined; soluble starch 2 g/kg one minute later; up to 120 minutes; mean ± standard error
Method: Six male Zucker fatty rats (10-week old) were fasted and orally administered with single doses of compound A (1 mg/kg) and an α-glucosidase inhibitor, voglibose (0.1 mg/kg), either alone or in combination. […] Wako Pure Chemical Industries, Ltd.)

Zucker fatty rats [7] = experiment: Combination treatment of compound A and miglitol in diabetic rats (soluble starch loading); conditions: fasted Zucker fatty rats; single oral dose compound A 0.5 mg/kg, miglitol 3 mg/kg, alone or combined; soluble starch 2 g/kg one minute later; up to 120 minutes; mean ± standard error
Method: Six male Zucker fatty rats (9-week old) were fasted and orally administered with single doses of compound A (0.5 mg/kg) and an α-glucosidase inhibitor, miglitol (3 mg/kg), either alone or in combination. One minute after the administration, the rats were orally administered with soluble starch solutions (2 g/kg); blood was taken from the tail vein of each rat at specified time intervals and centrifuged to collect plasma. Plasma glucose levels were measured by mutarotase-GOD method with a glucose assay kit (Glucose C2 Test Wako; Wako Pure Chemical Industries, Ltd.)

[8] = tested on: rats with STZ-induced diabetes mellitus; experiment: Combination treatment of compound A and insulin in diabetic rats; conditions: STZ diabetic SD rats, non-fasting; single oral dose compound A 1 mg/kg, subcutaneous slow-release insulin implant (one pellet), alone or combined; up to 8 hours; mean ± standard error
Description: SD rats (7-week old; CHARLES RIVER LABORATORIES JAPAN, INC.) were intraperitoneally administered with streptozocin (SIGMA-ALDRICH JAPAN K.K.; hereinafter abbreviated as STZ) to induce diabetes. The rats with STZ-induced diabetes mellitus (8-week old) underwent subcutaneous implant of a slow-release insulin (one pellet of […] Canada, Inc.) or sham operation. […] Blood was taken from the tail vein of each rat at specified time intervals and centrifuged to collect plasma. […] Wako Pure Chemical Industries, Ltd.)

[9] = tested on: high-fat diet loaded mice with STZ-induced diabetes mellitus; experiment: Combination treatment of compound A and glipizide in diabetic mice; conditions: high-fat diet STZ diabetic ICR mice, non-fasting; single oral dose compound A 1 mg/kg, glipizide 10 mg/kg, alone or combined; up to 8 hours; mean ± standard error
Method: After 3 weeks a high-fat diet (D12492 of Research Diets, Inc.) feeding, ICR mice (CHARLES RIVER LABORATORIES JAPAN, INC.) were intraperitoneally administered streptozocin (SIGMA-ALDRICH JAPAN K.K.; hereinafter abbreviated as STZ) to induce diabetes. […] SIGMA-ALDRICH JAPAN K.K.), either alone or in combination. Blood was taken from the tail vein of each mouse at specified time intervals and plasma glucose levels were measured by GOD colorimetry with a self-testing glucose measuring instrument (Medisafe Mini GR-102; TERUMO CORPORATION, Japan).

Zucker fatty rats [10] = experiment: Combination treatment of compound A and vildagliptin in diabetic rats (oral glucose loading); conditions: fasted Zucker fatty rats; single oral dose compound A 1 mg/kg, vildagliptin 3 mg/kg, alone or combined; glucose 2 g/kg one hour later; up to 120 minutes; mean ± standard error
Method: One hour after the administration, the rats were orally administered with glucose solutions (2 g/kg); blood was taken from the tail vein of each rat at specified time intervals and centrifuged to collect plasma. Plasma glucose levels were measured by mutarotase-GOD method with a glucose assay kit (Glucose C2 Test Wako; Wako Pure Chemical Industries, Ltd.)

KKAy mice [11] = experiment: Combination treatment of compound A and glimepiride in diabetic mice; conditions: non-fasting, single oral dose compound A 10 mg/kg, glimepiride 0.5 mg/kg, alone or combined, up to 3 hours, mean ± standard error
Method: as §1

KKAy mice [12] = experiment: Chronic combination treatment of compound A and glimepiride in diabetic mice; conditions: non-fasting, compound A 0.03% mixed diet, glimepiride 0.5 mg/kg once daily, alone or combined, one hour after drug administration, mean ± standard error
Method: Seven or eight female KKAy mice/group (4-week old; CLEA JAPAN, Inc.) were orally administered with repeated doses of compound A (0.03% mixed diet; ad libitum) and an insulin secretagogue, glimepiride (0.5 mg/kg, once daily; SIGMA-ALDRICH JAPAN K.K.), either alone or in combination, for 8 weeks. […] Plasma glucose levels were measured by the GDH electrode method with a self-testing glucose measuring instrument (Glutest Neo Super; […]

[13] = metformin hydrochloride 100 mg/kg, alone or with compound A 3 mg/kg
[14] = metformin hydrochloride 300 mg/kg, alone or with compound A 3 mg/kg

C[C@H]1O[C@H](O[C@H]2[C@H](O)[C@@H](O)[C@@H](O[C@H]3[C@H](O)[C@@H](O)C(O)O[C@@H]3CO)O[C@@H]2CO)[C@H](O)[C@@H](O)[C@@H]1N[C@H]1C=C(CO)[C@@H](O)[C@H](O)[C@H]1O (stereo partly drawn) [Acarbose, acarbose]
Δ plasma glucose AUC (Zucker fatty rats [1]): 10192.8 ± 913.6 mg·min/dL

CCOc1ccc(Cc2cc([C@@H]3S[C@H](CO)[C@@H](O)[C@H](O)[C@H]3O)c(OC)cc2C)cc1 [Compound A, (1S)-1,5-anhydro-1-[5-(4-ethoxybenzyl)-2-methoxy-4-methylphenyl]-1-thio-D-glucitol]
Change in GHb (%) (db/db mice [2]; compound A 3 mg/kg once daily oral, alone, GHb after minus before): 0.14 ± 0.39% | Fasting plasma glucose level (db/db mice [2]; compound A 3 mg/kg once daily oral, alone): 275.0 ± 28.7 mg/dL | Change in plasma IRI level (db/db mice [2]; compound A 3 mg/kg once daily oral, alone, after minus before): -5.01 ± 2.11 ng/mL | Δ plasma glucose AUC (Zucker fatty rats [3]): 11239.9 ± 617.8 mg·min/dL | Δ plasma glucose AUC [4]: -130.1 ± 164.9 mg·h/dL | Change in GHb (%) (db/db mice [5]): 3.15 ± 0.16% | Non-fasting plasma glucose level (db/db mice [5]): 607.9 ± 21.6 mg/dL | Change in plasma IRI level (db/db mice [5]): -27.81 ± 4.41 ng/dL | Δ plasma glucose AUC (C57BL mice): -4.2 ± 8.5 mg·h/dL | Δ plasma glucose AUC (Zucker fatty rats [6]): 10940.4 ± 952.7 mg·min/dL | Δ plasma glucose AUC (Zucker fatty rats [7]): 11655.9 ± 1021.8 mg·min/dL | Plasma glucose AUC [8]: 3983.4 ± 194.5 mg·h/dL | Δ plasma glucose AUC (Zucker fatty rats [1]): 9861.6 ± 1076.0 mg·min/dL | Δ plasma glucose AUC [9]: -310.3 ± 157.2 mg·h/dL | Δ plasma glucose AUC (Zucker fatty rats [10]): 11690.1 ± 807.9 mg·min/dL | Δ plasma glucose AUC (KKAy mice [11]): -83.0 ± 14.6 mg·h/dL | Plasma glucose level at 4 wk of administration (KKAy mice [12]): 154.8 ± 5.9 mg/dL | Plasma glucose level at 8 wk of administration (KKAy mice [12]): 168.6 ± 2.2 mg/dL

COc1ccc(Cl)cc1C(=O)NCCc1ccc(S(=O)(=O)NC(=O)NC2CCCCC2)cc1 [Glibenclamide, glibenclamide]
Δ plasma glucose AUC [4]: 140.3 ± 107.2 mg·h/dL

CCC1=C(C)CN(C(=O)NCCc2ccc(S(=O)(=O)NC(=O)N[C@H]3CC[C@H](C)CC3)cc2)C1=O [Glimepiride, glimepiride]
Δ plasma glucose AUC (C57BL mice): -104.0 ± 9.3 mg·h/dL | Δ plasma glucose AUC (KKAy mice [11]): -118.6 ± 20.2 mg·h/dL | Plasma glucose level at 4 wk of administration (KKAy mice [12]): 137.6 ± 13.3 mg/dL | Plasma glucose level at 8 wk of administration (KKAy mice [12]): 160.4 ± 8.2 mg/dL

CN(C)C(=N)N=C(N)N [Metformin hydrochloride, metformin hydrochloride]
Fasting plasma glucose level (db/db mice [2]; [13]): 378.3 ± 33.4 mg/dL | Change in GHb (%) (db/db mice [2]; metformin hydrochloride 100 mg/kg, alone or with compound A 3 mg/kg, oral): 2.08 ± 0.33% | Fasting plasma glucose level (db/db mice [2]; [14]): 254.0 ± 24.7 mg/dL | Change in GHb (%) (db/db mice [2]; metformin hydrochloride 300 mg/kg, alone or with compound A 3 mg/kg, oral): 1.70 ± 0.23% | Change in plasma IRI level (db/db mice [2]; [13]): -9.81 ± 0.91 ng/mL | Change in plasma IRI level (db/db mice [2]; [14]): -7.36 ± 1.29 ng/mL

OCCN1C[C@H](O)[C@@H](O)[C@H](O)[C@H]1CO [Miglitol, miglitol]
Δ plasma glucose AUC (Zucker fatty rats [7]): 8909.4 ± 1390.0 mg·min/dL

CCc1ccc(CCOc2ccc(CC3SC(=O)NC3=O)cc2)nc1 (stereo not drawn) [Pioglitazone, pioglitazone]
Change in GHb (%) (db/db mice [5]): 3.04 ± 0.36% | Non-fasting plasma glucose level (db/db mice [5]): 555.2 ± 56.9 mg/dL | Change in plasma IRI level (db/db mice [5]): -43.29 ± 3.83 ng/dL

N[C@@H](CC(=O)N1CCn2c(nnc2C(F)(F)F)C1)Cc1cc(F)c(F)cc1F [Sitagliptin, sitagliptin]
Δ plasma glucose AUC (Zucker fatty rats [3]): 13881.4 ± 1292.9 mg·min/dL

OCC(CO)N[C@H]1C[C@](O)(CO)[C@@H](O)[C@H](O)[C@H]1O [Voglibose, voglibose]
Δ plasma glucose AUC (Zucker fatty rats [6]): 12395.5 ± 543.0 mg·min/dL
